Experimental data taken from US20230339886A1 (University of Florida Research Foundation, Incorporated, priority 2020, published 2023).

Target: T1, REV-ERBα LBD (human; residues 281-614 Δ324-422) (Homo sapiens, UniProt P20393, DEL324-422)
T1 construct: 6×Histag-REV-ERBα LBD (human; residues 281-614 Δ324-422); made in house; host or cells: Escherichia coli
Assay: TR-FRET corepressor interaction assay (REV-ERBα LBD, FITC-SMRT peptide)
Format: biochemical
Details: Table 2, read-out: REVERBα agonism (EC50 class, FRET assay)
Protocol: TR-FRET corepressor interaction assay. The time-resolved fluorescence resonance energy transfer (TR-FRET) assay was performed in black low-volume 384-well plates (Greiner). […] Ligand stocks were prepared via serial dilution in DMSO, added to wells in triplicate, and plates were incubated at 4° C. for 2 h and read using a BioTek Synergy Neo multimode plate reader. The Tb donor was excited at 340 nm; its fluorescence emission was monitored at 495 nm, and the acceptor FITC emission was measured at 520 nm; and the TR-FRET ratio was calculated as the signal at 520 nm divided by the signal at 495 nm. Data were plotted using GraphPad Prism as TR-FRET ratio vs. ligand concentration and fit to sigmoidal dose response curve equation.

T1 sequence (P20393 with tags, fused parts or gaps DEL324-422): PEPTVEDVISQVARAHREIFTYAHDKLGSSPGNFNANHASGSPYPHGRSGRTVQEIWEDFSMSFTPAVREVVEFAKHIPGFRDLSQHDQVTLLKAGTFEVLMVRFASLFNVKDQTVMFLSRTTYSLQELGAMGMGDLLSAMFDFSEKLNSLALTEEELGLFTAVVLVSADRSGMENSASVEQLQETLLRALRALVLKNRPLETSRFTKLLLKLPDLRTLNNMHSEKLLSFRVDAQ
T1 sequence (Q9Y618 2335-2356 partner limits assumed): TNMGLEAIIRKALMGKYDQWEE

Row | EC50 [µM] | SMILES
1 | 0.5 to 3 | CC(C)Cn1cc(CCNS(=O)(=O)N(C)C)c2ccc(-n3ccnc3)cc21 [Example 93, N-{2-[6-(1H-imidazol-1-yl)-1-(2-methylpropyl)-1H-indol-3-yl]ethyl}-N,N-dimethylsulfuric diamide]
2 | > 3 | CC(C)Cn1cc(CCNS(=O)(=O)N(C)C)c2ccc(C(C)(C)C)cc21 [Example 106, ({2-[6-tert-butyl-1-(2-methylpropyl)-1H-indol-3-yl]ethyl}sulfamoyl)dimethylamine]
3 | 0.5 to 3 | CC(C)Cn1cc(CCNS(=O)(=O)N(C)C)c2ccc(C3(O)CCC3)cc21 [Example 107, 1-(3-{2-[(dimethylsulfamoyl)amino]ethyl}-1-(2-methylpropyl)-1H-indol-6-yl)cyclobutan-1-ol]
4 | < 0.5 | CC(C)Cn1cc(CCNS(=O)(=O)N(C)C)c2ccc(C3CCC3)cc21 [Example 108, ({2-[6-cyclobutyl-1-(2-methylpropyl)-1H-indol-3-yl]ethyl}sulfamoyl)dimethylamine]
5 | < 0.5 | CC(C)Cn1cc(CCNS(=O)(=O)N(C)C)c2ccc(Cl)cc21 [Example 109, ({2-[6-chloro-1-(2-methylpropyl)-1H-indol-3-yl]ethyl}sulfamoyl)dimethylamine]
6 | 0.5 to 3 | CC(C)Cn1cc(CCNS(=O)(=O)N(C)C)c2ccc(F)cc21 [Example 110, ({2-[6-fluoro-1-(2-methylpropyl)-1H-indol-3-yl]ethyl}sulfamoyl)dimethylamine]
7 | 0.5 to 3 | CC(C)Cn1cc(CCNS(=O)(=O)N(C)C)c2ccc(NC(C)C)cc21 [Example 111, N-{2-[6-isopropylamino-1-(2-methylpropyl)-1H-indol-3-yl]ethyl}-N,N-dimethylsulfuric diamide]
8 | > 3 | CCNc1ccc2c(CCNS(=O)(=O)N(C)C)cn(CC(C)C)c2c1 [Example 112, N′-{2-[6-ethylamino-1-(2-methylpropyl)-1H-indol-3-yl]ethyl}-N,N-dimethylsulfuric diamide]
9 | 0.5 to 3 | CC(C)Cn1cc(CCNS(=O)(=O)N(C)C)c2ccc(N(C)C)cc21 [Example 113, N′-{2-[6-N,N-dimethylamino-1-(2-methylpropyl)-1H-indol-3-yl]ethyl}-N,N-dimethylsulfuric diamide]
10 | 0.5 to 3 | CC(C)Cn1cc(CCN(C)S(=O)(=O)N(C)C)c2ccc(N(C)C)cc21 [Example 114, N′-{2-[6-N,N-dimethylamino-1-(2-methylpropyl)-1H-indol-3-yl]ethyl}-N′-methyl-N,N-dimethyl sulfuric diamide]
11 | 0.5 to 3 | CC(C)Cn1cc(CCNS(=O)(=O)N(C)C)c2ccc(OCc3ccccc3)cc21 [Example 115, N′-{2-[6-benzyloxy-1-(2-methylpropyl)-1H-indol-3-yl]ethyl}-N,N-dimethylsulfuric diamide]
12 | > 3 | CC(C)Cn1cc(CCNS(=O)(=O)N(C)C)c2ccc(O)cc21 [Example 116, N-{2-[6-hydroxy-1-(2-methylpropyl)-1H-indol-3-yl]ethyl}-N,N-dimethylsulfuric diamide]
13 | > 3 | COc1ccc2c(CCN(C)S(=O)(=O)N(C)C)cn(CC(C)C)c2c1 [Example 117, N-{2-[6-methoxyl-1-(2-methylpropyl)-1H-indol-3-yl]ethyl}-N-methyl-N,N-dimethyl sulfuric diamide]
14 | 0.5 to 3 | CC(C)Cn1cc(CCNS(=O)(=O)N(C)C)c2ccc(OC(C)C)cc21 [Example 118, N′-{2-[6-isopropoxy-1-(2-methylpropyl)-1H-indol-3-yl]ethyl}-N,N-dimethylsulfuric diamide]
15 | 0.5 to 3 | CC(C)Cn1cc(CCN(C)S(=O)(=O)N(C)C)c2ccc(C(F)(F)F)cc21 [Example 121, dimethyl[methyl({2-[1-(2-methylpropyl)-6-(trifluoromethyl)-1H-indol-3-yl]ethyl})sulfamoyl]amine]
16 | < 0.5 | CC(C)Cc1cn(CCN(C)S(=O)(=O)N(C)C)c2ncc(-c3ccncc3)cc12 [Example 125, dimethyl[methyl({2-[3-(2-methylpropyl)-5-(pyridin-4-yl)-1H-pyrrolo[2,3-b]pyridin-1-yl]ethyl})sulfamoyl]amine]
17 | 0.5 to 3 | CC(C)Cc1cn(CCN(C)S(=O)(=O)C2CC2)c2ncc(-c3ccncc3)cc12 [Example 126, N-(2-(3-isobutyl-5-(pyridin-4-yl)-1H-pyrrolo[2,3-b]pyridin-1-yl)ethyl)-N-methylcyclopropanesulfonamide]
18 | 0.5 to 3 | CN(C)S(=O)(=O)N(C)CCc1cn(C)c2cc(-c3ccncc3)ccc12 [Example 127, N′-{2-[6-(pyridin-4-yl)-1-methyl-1H-indol-3-yl]ethyl}-N′-methyl-N,N-dimethylsulfuric diamide]

Row | EC50 [µM] | SMILES
19 | 0.5 to 3 | CN(C)S(=O)(=O)NCCc1cn(C)c2cc(-c3ccncc3)ccc12 [Example 128, N′-{2-[6-(pyridin-4-yl)-1-methyl-1H-indol-3-yl]ethyl}-N,N-dimethylsulfuric diamide]
20 | 0.5 to 3 | CC(C)n1cc(CCNS(=O)(=O)N(C)C)c2ccc(-c3ccncc3)cc21 [Example 129, N′-{2-[6-(pyridin-4-yl)-1-isopropyl-1H-indol-3-yl]ethyl}-N,N-dimethylsulfuric diamide]
21 | > 3 | CC(C)S(=O)(=O)n1cc(CCNS(=O)(=O)N(C)C)c2ccc(-c3ccncc3)cc21 [Example 130, N′-{2-[6-(pyridin-4-yl)-1-isopropylsulfonyl-1H-indol-3-yl]ethyl}-N,N-dimethylsulfuric diamide]
22 | > 3 | CCn1cc(CCNS(=O)(=O)N(C)C)c2ccc(-c3ccncc3)cc21 [Example 132, N′-{2-[6-(pyridin-4-yl)-1-ethyl-1H-indol-3-yl]ethyl}-N,N-dimethylsulfuric diamide]
23 | 0.5 to 3 | CCN(CCc1cn(CC)c2cc(-c3ccncc3)ccc12)S(=O)(=O)N(C)C [Example 133, N′-{2-[6-(pyridin-4-yl)-1-ethyl-1H-indol-3-yl]ethyl}-N′-ethyl-N,N-dimethylsulfuric diamide]
24 | > 3 | CN(C)S(=O)(=O)NCCc1cn(C2CC2)c2cc(-c3ccncc3)ccc12 [Example 134, N′-{2-[6-(pyridin-4-yl)-1-cyclopropyl-1H-indol-3-yl]ethyl}-N,N-dimethylsulfuric diamide]
25 | < 0.5 | CC(C)Cn1cc(CCNS(=O)(=O)N(C)C)c2cc(Br)ccc21 [Example 135, ({2-[5-bromo-1-(2-methylpropyl)-1H-indol-3-yl]ethyl}sulfamoyl)dimethylamine]
26 | 0.5 to 3 | CC(C)Cn1cc(CCNS(=O)(=O)N(C)C)c2c(Br)cccc21 [Example 136, ({2-[4-bromo-1-(2-methylpropyl)-1H-indol-3-yl]ethyl}sulfamoyl)dimethylamine]
27 | > 3 | CN(C)S(=O)(=O)NCCc1cn(Cc2ccccc2Br)c2cc(-c3ccncc3)ccc12 [Example 140, N′-{2-[6-(pyridin-4-yl)-1-(2-bromobenzyl)-1H-indol-3-yl]ethyl}-N,N-dimethylsulfuric diamide]
28 | < 0.5 | CN(C)S(=O)(=O)NCCc1cn(Cc2cccc(Cl)c2)c2cc(-c3ccncc3)ccc12 [Example 141, N-{2-[6-(pyridin-4-yl)-1-(3-chlorobenzyl)-1H-indol-3-yl]ethyl}-N,N-dimethylsulfuric diamide]
29 | 0.5 to 3 | CN(C)S(=O)(=O)NCCc1cn(Cc2cccc(C(F)(F)F)c2)c2cc(-c3ccncc3)ccc12 [Example 142, N-{2-[6-(pyridin-4-yl)-1-(3-trifluoromethylbenzyl)-1H-indol-3-yl]ethyl}-N,N-dimethyl-sulfuric diamide]
30 | < 0.5 | CN(C)S(=O)(=O)NCCc1cn(Cc2cccc(Br)c2)c2cc(-c3ccncc3)ccc12 [Example 143, N-{2-[6-(pyridin-4-yl)-1-(3-bromobenzyl)-1H-indol-3-yl]ethyl}-N,N-dimethylsulfuric diamide]
31 | < 0.5 | CN(C)S(=O)(=O)NCCc1cn(Cc2cccc(F)c2)c2cc(-c3ccncc3)ccc12 [Example 144, N-{2-[6-(pyridin-4-yl)-1-(3-fluorobenzyl)-1H-indol-3-yl]ethyl}-N,N-dimethylsulfuric diamide]
32 | > 3 | CN(C)S(=O)(=O)NCCc1cn(Cc2cccc(I)c2)c2cc(-c3ccncc3)ccc12 [Example 145, N-{2-[6-(pyridin-4-yl)-1-(3-iodobenzyl)-1H-indol-3-yl]ethyl}-N,N-dimethylsulfuric diamide]
33 | 0.5 to 3 | CN(C)S(=O)(=O)NCCc1cn(Cc2ccc(F)cc2)c2cc(-c3ccncc3)ccc12 [Example 146, N-{2-[6-(pyridin-4-yl)-1-(4-fluorobenzyl)-1H-indol-3-yl]ethyl}-N,N-dimethylsulfuric diamide]
34 | 0.5 to 3 | COc1cccc(Cn2cc(CCNS(=O)(=O)N(C)C)c3ccc(-c4ccncc4)cc32)c1 [Example 147, N-{2-[6-(pyridin-4-yl)-1-(3-methoxybenzyl)-1H-indol-3-yl]ethyl}-N,N-dimethylsulfuric diamide]
35 | 0.5 to 3 | CN(C)S(=O)(=O)NCCc1cn(Cc2cccc([N+](=O)[O-])c2)c2cc(-c3ccncc3)ccc12 [Example 148, N-{2-[6-(pyridin-4-yl)-1-(3-nitrobenzyl)-1H-indol-3-yl]ethyl}-N,N-dimethylsulfuric diamide]
36 | 0.5 to 3 | CN(C)S(=O)(=O)NCCc1cn(Cc2ccc(F)cc2F)c2cc(-c3ccncc3)ccc12 [Example 149, N-{2-[6-(pyridin-4-yl)-1-(2,4-difluorobenzyl)-1H-indol-3-yl]ethyl}-N,N-dimethylsulfuric diamide]

Row | SMILES | EC50 [µM]
37 | CC(C)Cn1cc(CCNS(=O)(=O)N(C)C)c2ccc(OC(C)(C)C)cc21 [Example 119, N′-{2-[6-tert-butoxy-1-(2-methylpropyl)-1H-indol-3-yl]ethyl}-N,N-dimethylsulfuric diamide] | 0.5 to 3
